ChEMBL document CHEMBL4507291 (2021)

Legend:
[1] = molecular target: T1, Serine/threonine-protein kinase Chk1 (Homo sapiens) (UniProt O14757); test: CHEK1 (CHK1) Kinase screen; conditions: Compound concentration 1.0 uM
T1 sequence (whole entry): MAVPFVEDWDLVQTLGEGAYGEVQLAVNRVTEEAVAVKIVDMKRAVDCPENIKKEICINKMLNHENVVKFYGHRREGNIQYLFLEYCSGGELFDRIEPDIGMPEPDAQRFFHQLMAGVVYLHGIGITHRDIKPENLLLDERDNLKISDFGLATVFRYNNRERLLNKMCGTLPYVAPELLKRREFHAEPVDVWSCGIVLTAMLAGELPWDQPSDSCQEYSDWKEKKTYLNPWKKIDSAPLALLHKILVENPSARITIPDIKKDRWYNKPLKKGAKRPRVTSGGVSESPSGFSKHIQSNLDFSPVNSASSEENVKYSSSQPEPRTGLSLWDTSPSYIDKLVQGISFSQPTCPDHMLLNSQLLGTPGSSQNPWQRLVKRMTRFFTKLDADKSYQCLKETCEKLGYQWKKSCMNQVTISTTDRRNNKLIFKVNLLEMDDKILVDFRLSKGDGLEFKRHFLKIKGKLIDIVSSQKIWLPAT

[2] = molecular target: Casein kinase I isoform gamma-1 (Homo sapiens) (UniProt Q9HCP0); test: CSNK1G1 (CK1 gamma 1) Kinase screen; conditions: Compound concentration 1.0 uM
Chain of Casein kinase I isoform gamma-1 (Homo sapiens) (Q9HCP0 whole entry, looked up, canonical isoform): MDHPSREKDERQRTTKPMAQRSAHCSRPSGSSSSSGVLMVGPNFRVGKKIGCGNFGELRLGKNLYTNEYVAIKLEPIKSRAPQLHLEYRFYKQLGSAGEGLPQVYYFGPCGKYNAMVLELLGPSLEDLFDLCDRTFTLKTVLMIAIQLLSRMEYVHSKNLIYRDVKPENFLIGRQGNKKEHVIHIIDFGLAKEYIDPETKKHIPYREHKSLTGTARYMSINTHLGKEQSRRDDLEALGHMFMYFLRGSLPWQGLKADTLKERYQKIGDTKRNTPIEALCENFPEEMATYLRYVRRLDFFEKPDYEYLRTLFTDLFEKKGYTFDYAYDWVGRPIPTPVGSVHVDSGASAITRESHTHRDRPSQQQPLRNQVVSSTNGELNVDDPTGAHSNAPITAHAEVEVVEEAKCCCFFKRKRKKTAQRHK

[3] = molecular target: Mitogen-activated protein kinase kinase kinase 14 (Homo sapiens) (UniProt Q99558); test: MAP3K14 (NIK) Kinase screen; conditions: Compound concentration 1.0 uM
Chain of Mitogen-activated protein kinase kinase kinase 14 (Homo sapiens) (Q99558 whole entry, looked up): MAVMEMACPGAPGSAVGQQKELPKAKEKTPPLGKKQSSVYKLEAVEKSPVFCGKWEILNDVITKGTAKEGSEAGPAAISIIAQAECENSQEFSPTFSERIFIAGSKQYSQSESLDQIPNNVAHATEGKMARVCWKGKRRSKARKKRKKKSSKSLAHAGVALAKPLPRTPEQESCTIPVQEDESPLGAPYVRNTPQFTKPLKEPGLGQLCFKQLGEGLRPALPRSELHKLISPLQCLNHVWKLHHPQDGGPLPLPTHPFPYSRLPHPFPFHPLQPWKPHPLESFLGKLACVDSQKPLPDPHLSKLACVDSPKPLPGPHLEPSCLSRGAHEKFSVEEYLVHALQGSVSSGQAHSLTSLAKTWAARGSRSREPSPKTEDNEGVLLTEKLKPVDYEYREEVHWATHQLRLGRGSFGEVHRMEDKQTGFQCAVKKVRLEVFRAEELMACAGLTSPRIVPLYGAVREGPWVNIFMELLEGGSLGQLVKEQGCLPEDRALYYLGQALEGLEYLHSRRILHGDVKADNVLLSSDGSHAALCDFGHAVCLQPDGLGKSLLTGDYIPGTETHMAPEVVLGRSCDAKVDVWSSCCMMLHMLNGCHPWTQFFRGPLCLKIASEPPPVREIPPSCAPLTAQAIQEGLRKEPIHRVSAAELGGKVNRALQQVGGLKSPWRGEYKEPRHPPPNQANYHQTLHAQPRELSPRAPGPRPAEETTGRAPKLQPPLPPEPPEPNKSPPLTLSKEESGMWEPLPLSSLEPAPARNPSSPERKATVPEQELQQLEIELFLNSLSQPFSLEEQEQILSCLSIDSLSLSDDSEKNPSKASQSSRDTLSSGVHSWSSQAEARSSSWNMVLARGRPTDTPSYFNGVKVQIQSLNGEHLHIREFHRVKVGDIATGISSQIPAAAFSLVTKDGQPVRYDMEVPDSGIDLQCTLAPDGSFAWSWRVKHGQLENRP

[4] = molecular target: T2, Serine/threonine-protein kinase Nek9 (Homo sapiens) (UniProt Q8TD19); test: NEK9 Kinase screen; conditions: Compound concentration 1.0 uM
T2 sequence (whole entry): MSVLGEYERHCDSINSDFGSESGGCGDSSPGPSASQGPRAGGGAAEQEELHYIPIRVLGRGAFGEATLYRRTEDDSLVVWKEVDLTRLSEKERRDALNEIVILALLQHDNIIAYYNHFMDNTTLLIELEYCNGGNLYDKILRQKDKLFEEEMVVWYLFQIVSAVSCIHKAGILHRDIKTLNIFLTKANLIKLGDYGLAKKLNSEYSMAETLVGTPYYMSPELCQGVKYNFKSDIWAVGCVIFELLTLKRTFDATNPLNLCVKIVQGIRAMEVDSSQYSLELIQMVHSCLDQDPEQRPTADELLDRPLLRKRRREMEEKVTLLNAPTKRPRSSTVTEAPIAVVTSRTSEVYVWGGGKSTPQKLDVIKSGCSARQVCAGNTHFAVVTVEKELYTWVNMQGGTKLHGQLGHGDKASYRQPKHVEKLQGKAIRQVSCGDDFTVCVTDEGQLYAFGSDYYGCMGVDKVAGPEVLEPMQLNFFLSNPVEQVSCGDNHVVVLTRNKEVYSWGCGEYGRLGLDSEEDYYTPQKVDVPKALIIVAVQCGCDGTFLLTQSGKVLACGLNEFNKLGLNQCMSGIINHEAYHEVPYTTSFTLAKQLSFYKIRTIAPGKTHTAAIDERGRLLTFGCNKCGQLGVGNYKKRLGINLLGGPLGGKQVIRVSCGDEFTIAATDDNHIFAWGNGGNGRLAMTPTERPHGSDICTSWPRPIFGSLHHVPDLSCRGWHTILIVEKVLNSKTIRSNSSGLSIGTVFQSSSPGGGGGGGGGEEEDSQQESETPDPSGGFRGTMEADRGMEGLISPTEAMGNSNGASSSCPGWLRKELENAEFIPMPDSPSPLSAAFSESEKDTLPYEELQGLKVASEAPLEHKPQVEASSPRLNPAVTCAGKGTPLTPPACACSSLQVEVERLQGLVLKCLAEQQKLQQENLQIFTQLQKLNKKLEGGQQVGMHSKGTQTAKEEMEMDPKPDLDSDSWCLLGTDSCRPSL

[5] = molecular target: Serine/threonine-protein kinase PLK1 (Homo sapiens) (UniProt P53350); test: PLK1 Kinase screen; conditions: Compound concentration 1.0 uM
Chain of Serine/threonine-protein kinase PLK1 (Homo sapiens) (P53350 whole entry): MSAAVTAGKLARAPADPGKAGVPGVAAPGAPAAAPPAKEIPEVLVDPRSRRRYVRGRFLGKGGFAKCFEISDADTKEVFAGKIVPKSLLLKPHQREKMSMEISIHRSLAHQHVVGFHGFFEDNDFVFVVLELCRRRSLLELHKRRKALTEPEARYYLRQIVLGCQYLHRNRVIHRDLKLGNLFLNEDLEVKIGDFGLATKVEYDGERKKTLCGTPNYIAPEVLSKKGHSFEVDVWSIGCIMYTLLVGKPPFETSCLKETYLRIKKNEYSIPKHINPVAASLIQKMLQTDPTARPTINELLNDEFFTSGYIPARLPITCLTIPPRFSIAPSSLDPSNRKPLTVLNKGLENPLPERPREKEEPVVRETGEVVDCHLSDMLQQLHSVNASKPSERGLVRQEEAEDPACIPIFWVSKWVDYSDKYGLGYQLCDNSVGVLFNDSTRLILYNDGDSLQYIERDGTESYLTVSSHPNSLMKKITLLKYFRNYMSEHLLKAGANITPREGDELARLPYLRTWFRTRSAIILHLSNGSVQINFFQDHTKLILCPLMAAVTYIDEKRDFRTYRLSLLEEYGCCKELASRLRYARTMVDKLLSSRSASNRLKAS

[6] = molecular target: Protein kinase C gamma type (Homo sapiens) (UniProt P05129); test: PRKCG (PKC gamma) Kinase screen; conditions: Compound concentration 1.0 uM
[7] = molecular target: T3, Serine/threonine-protein kinase Sgk3 (Homo sapiens) (UniProt Q96BR1); test: SGKL (SGK3) Kinase screen; conditions: Compound concentration 1.0 uM
T3 sequence (whole entry): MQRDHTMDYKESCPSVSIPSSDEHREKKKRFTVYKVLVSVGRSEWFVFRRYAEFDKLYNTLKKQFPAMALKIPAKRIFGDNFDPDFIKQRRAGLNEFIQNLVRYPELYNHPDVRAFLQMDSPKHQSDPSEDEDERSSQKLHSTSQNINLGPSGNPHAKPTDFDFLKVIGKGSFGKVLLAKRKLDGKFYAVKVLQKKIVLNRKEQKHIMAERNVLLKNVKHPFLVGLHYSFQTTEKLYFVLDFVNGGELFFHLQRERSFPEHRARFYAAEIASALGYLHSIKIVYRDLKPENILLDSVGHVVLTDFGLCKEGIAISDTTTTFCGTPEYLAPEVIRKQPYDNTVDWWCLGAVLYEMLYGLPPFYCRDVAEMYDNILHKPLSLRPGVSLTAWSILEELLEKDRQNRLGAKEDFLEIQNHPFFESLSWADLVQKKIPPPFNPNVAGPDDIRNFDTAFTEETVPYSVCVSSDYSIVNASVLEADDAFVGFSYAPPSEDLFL

[8] = species on record: Homo sapiens; test: Chemokine CCR1 Eurofins-Panlabs radioligand binding assay; design: ligand concentration 0.1 nM; conditions: Compound concentration 10.0 uM
[9] = molecular target: Progesterone receptor (Homo sapiens) (UniProt P06401); test: Inhibition of Progesterone PR-B at 10 µM in the Eurofins-Panlabs radioligand binding assay (Eurofins_assay_268020); design: ligand concentration 1.4 nM; conditions: Compound concentration 10.0 uM
Chain of Progesterone receptor (Homo sapiens) (P06401 whole entry): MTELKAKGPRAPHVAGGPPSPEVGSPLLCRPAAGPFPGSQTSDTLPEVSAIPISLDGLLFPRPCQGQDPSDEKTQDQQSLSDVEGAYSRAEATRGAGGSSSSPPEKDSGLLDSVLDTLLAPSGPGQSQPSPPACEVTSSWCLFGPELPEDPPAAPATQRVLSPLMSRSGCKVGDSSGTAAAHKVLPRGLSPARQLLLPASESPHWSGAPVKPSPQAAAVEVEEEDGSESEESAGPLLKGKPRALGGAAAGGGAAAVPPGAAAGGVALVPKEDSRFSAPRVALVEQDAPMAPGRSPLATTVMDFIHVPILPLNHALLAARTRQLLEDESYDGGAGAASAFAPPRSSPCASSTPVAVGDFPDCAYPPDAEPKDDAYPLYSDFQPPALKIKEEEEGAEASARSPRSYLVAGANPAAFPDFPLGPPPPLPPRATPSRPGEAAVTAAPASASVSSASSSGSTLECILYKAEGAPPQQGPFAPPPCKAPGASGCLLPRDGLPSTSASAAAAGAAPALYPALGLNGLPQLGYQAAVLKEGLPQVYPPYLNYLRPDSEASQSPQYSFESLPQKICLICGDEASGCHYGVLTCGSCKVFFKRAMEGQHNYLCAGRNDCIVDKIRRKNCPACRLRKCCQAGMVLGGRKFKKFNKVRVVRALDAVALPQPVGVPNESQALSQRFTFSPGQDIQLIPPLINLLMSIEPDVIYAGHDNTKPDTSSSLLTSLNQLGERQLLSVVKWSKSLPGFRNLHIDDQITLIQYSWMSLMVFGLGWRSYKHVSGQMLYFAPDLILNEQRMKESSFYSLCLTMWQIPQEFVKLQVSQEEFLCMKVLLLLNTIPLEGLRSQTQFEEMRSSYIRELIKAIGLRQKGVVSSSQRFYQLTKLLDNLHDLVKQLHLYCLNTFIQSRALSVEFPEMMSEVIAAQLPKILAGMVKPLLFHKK

[10] = molecular target: Prostaglandin E2 receptor EP1 subtype (Homo sapiens) (UniProt P34995); test: Prostanoid EP1 Eurofins-Panlabs radioligand binding assay; design: ligand concentration 1 nM; conditions: Compound concentration 10.0 uM
Chain of Prostaglandin E2 receptor EP1 subtype (Homo sapiens) (P34995 whole entry): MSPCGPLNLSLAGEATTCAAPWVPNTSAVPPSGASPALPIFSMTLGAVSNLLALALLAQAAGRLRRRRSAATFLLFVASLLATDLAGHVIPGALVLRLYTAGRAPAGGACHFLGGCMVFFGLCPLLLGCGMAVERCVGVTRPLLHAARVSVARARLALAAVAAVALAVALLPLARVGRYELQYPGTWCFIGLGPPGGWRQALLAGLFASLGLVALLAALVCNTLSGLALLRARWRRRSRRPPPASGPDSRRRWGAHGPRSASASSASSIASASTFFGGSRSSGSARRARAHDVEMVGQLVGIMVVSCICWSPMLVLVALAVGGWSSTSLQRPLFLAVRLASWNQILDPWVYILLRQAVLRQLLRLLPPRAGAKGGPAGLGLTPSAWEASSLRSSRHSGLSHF

[11] = molecular target: Glutamate NMDA receptor (Rattus norvegicus) (UniProt P35439+Q00959+Q00960+Q00961+Q62645+Q8VHN2+Q9R1M7); conditions: Compound concentration 10.0 uM
[12] = molecular target: T4, 5-hydroxytryptamine receptor 2C (Homo sapiens) (UniProt P28335); conditions: Compound concentration 10.0 uM
T4 sequence (whole entry): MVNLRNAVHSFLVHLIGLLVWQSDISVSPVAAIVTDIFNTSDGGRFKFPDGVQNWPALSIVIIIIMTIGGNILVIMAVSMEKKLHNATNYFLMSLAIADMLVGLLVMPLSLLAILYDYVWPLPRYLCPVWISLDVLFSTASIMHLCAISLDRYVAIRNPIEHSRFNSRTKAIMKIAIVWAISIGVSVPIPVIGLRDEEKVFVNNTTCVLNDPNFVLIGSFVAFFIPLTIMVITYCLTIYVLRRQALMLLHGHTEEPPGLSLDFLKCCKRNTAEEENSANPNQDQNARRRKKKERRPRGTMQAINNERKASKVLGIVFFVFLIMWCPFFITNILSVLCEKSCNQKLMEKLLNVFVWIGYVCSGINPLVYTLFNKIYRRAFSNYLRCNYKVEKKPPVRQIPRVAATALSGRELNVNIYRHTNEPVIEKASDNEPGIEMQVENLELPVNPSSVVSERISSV

[13] = molecular target: 3-phosphoinositide-dependent protein kinase 1 (PDPK1) (Homo sapiens) (UniProt O15530); test: PDK1 Direct Kinase screen; conditions: Compound concentration 1.0 uM
Chain of 3-phosphoinositide-dependent protein kinase 1 (PDPK1) (Homo sapiens) (O15530 whole entry, looked up): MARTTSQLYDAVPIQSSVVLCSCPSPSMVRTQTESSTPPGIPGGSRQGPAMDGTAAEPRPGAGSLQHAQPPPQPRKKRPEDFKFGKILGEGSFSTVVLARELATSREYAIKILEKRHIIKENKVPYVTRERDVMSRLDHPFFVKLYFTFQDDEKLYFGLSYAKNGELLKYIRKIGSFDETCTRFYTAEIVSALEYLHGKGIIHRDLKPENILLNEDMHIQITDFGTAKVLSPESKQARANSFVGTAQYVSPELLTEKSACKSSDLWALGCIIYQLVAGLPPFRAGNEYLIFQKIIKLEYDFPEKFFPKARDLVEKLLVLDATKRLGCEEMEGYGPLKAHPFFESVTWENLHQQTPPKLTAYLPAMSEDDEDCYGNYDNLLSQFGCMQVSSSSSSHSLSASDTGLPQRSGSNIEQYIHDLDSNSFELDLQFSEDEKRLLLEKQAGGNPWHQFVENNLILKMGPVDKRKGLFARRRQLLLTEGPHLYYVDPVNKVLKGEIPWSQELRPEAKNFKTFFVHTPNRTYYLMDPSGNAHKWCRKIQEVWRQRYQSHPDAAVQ

Measured: inhibition

C[C@@H]1CN(c2cc(-c3n[nH]c4ccc(OC5(C)CC5)cc34)ncn2)C[C@H](C)O1 [MLi-2]
inactive: [1] -0.226% | [2] -1.82% | [3] 78.8% | [4] -0.999% | [5] 7.54% | [6] 1.24% | [7] 0.213% | [8] -3% | [9] 30% | [10] 16% | [11] 4% | [12] -7% | [13] -2.36%
